{
  "source": "patent US20250099474A1",
  "about": "(priority 2022, published 2025)",
  "test_system": "SARS-CoV-2",
  "assay": "Phase 2/3 study, Phase 2b Part: score of 12 COVID-19 symptoms per unit time",
  "type": "in vivo, human",
  "details": "for Change from baseline up to 120 hours in total score of 12 COVID-19 symptoms per unit time: Adjusted mean value by covariance analysis (standard error) / Change from baseline up to 120 hours in total score of 12 COVID-19 symptoms per unit time: Difference of adjusted mean value from that of placebo group (standard error) / Change from baseline up to 120 hours in total score of 12 COVID-19 symptoms per unit time: Maximum value / Change from baseline up to 120 hours in total score of 12 COVID-19 symptoms per unit time: Mean value / Change from baseline up to 120 hours in total score of 12 COVID-19 symptoms per unit time: Median value / Change from baseline up to 120 hours in total score of 12 COVID-19 symptoms per unit time: Minimum value: mild/moderate patients, ITT1 population",
  "protocol": "The primary endpoints of Phase 2b Part were the time-weighted average change in the total score of 12 COVID-19 symptoms per unit time from the start of the first administration (Day 1) to 120 hours (Day 6), and the change from baseline in SARS-CoV-2 virus titer on Day 4, in mild/moderate SARS-CoV-2-infected patients, and the clinical improvement and the antiviral effect of the active drug were confirmed.\nThe administration of the active drug is repeated oral administration once a day for 5 days. The 375/125 mg group received 375 mg on Day 1 as a loading dose and 125 mg on Days 2 to 5 as a maintenance dose. The 750/250 mg group received 750 mg on Day 1 as a loading dose and 250 mg on Days 2 to 5 as a maintenance dose.\nThe primary efficacy endpoints of Phase 2b Part for mild/moderate SARS-CoV-2-infected patients were the time-weighted average change in the total score of 12 COVID-19 symptoms per unit time from the start of the first administration (Day 1) to 120 hours (Day 6), and the change from baseline in SARS-CoV-2 virus titer on Day 4. The total score of 12 COVID-19 symptoms is the sum of the scores determined by evaluation in four grades (0: none, 1: mild, 2: moderate, 3: severe) in the subject daily records for each of the 12 COVID-19 symptoms (low energy and tiredness, muscle or body aches, headache, chills or shivering, feeling hot or feverish, stuffy and runny nose, sore throat, cough, shortness of breath (difficulty breathing), nausea, vomiting, diarrhea).\nPairwise comparison was performed between each active drug dose group and the placebo group. […] Pairwise comparison was performed between each active drug dose group and the placebo group.\nThe results of classifying the twelve COVID-19 symptoms shown in the above (2-a) into 5 types (acute symptoms, major clinical symptoms, respiratory symptoms, systemic symptoms, and gastrointestinal symptoms) and analyzing the same (ITT population) are shown in the following table. • Acute symptoms: sore throat, cough, feeling hot and feverish • Major clinical symptoms: stuffy and runny nose, sore throat, cough, chills or shivering, feeling hot or feverish • Respiratory symptoms: stuffy and runny nose, sore throat, cough, shortness of breath (difficulty breathing) • Systemic symptoms: low energy and tiredness, muscle or body aches, headache, chills or shivering, feeling hot or feverish • Gastrointestinal symptoms: nausea, vomiting, diarrhea",
  "key": {"[1]": {"details": "ITT population, 750/250 mg group"}},
  "data": [
    {"molecule": "Cn1cnc(Cn2c(=O)[nH]/c(=N\\c3cc4cn(C)nc4cc3Cl)n(Cc3cc(F)c(F)cc3F)c2=O)n1", "note": "[(6E)-6-[(6-chloro-2-methyl-2H-indazol-5-yl)imino]-3-[(1-methyl-1H-1,2,4-triazol-3-yl)methyl]-1-[(2,4,5-trifluorophenyl)methyl]-1,3,5-triazinane-2,4-dione]", "values": [
      {"measurement": "Change from baseline up to 120 hours in sub-total score per unit time, acute symptoms: Minimum value", "setting": "[1]", "result": "−6.93"},
      {"measurement": "Change from baseline up to 120 hours in sub-total score per unit time, gastrointestinal symptoms: Adjusted mean value by covariance analysis (standard error)", "setting": "[1]", "result": "−1.08 (0.14)"},
      {"measurement": "Change from baseline up to 120 hours in sub-total score per unit time, gastrointestinal symptoms: Difference of adjusted mean value from that of placebo group (standard error)", "setting": "[1]", "result": "0.25 (0.18)"},
      {"measurement": "Change from baseline up to 120 hours in sub-total score per unit time, gastrointestinal symptoms: Maximum value", "setting": "[1]", "result": 0.50},
      {"measurement": "Change from baseline up to 120 hours in sub-total score per unit time, gastrointestinal symptoms: Mean value", "setting": "[1]", "result": "−1.13"},
      {"measurement": "Change from baseline up to 120 hours in sub-total score per unit time, gastrointestinal symptoms: Median value", "setting": "[1]", "result": "−0.79"},
      {"measurement": "Change from baseline up to 120 hours in sub-total score per unit time, gastrointestinal symptoms: Minimum value", "setting": "[1]", "result": "−5.78"},
      {"measurement": "Change from baseline up to 120 hours in sub-total score per unit time, major clinical symptoms: Adjusted mean value by covariance analysis (standard error)", "setting": "[1]", "result": "−3.42 (0.14)"},
      {"measurement": "Change from baseline up to 120 hours in sub-total score per unit time, major clinical symptoms: Difference of adjusted mean value from that of placebo group (standard error)", "setting": "[1]", "result": "−0.42 (0.17)"},
      {"measurement": "Change from baseline up to 120 hours in sub-total score per unit time, major clinical symptoms: Maximum value", "setting": "[1]", "result": 0.39},
      {"measurement": "Change from baseline up to 120 hours in sub-total score per unit time, major clinical symptoms: Mean value", "setting": "[1]", "result": "−3.54"},
      {"measurement": "Change from baseline up to 120 hours in sub-total score per unit time, major clinical symptoms: Median value", "setting": "[1]", "result": "−3.42"},
      {"measurement": "Change from baseline up to 120 hours in sub-total score per unit time, major clinical symptoms: Minimum value", "setting": "[1]", "result": "−10.11"},
      {"measurement": "Change from baseline up to 120 hours in sub-total score per unit time, respiratory symptoms: Adjusted mean value by covariance analysis (standard error)", "setting": "[1]", "result": "−2.16 (0.12)"},
      {"measurement": "Change from baseline up to 120 hours in sub-total score per unit time, respiratory symptoms: Difference of adjusted mean value from that of placebo group (standard error)", "setting": "[1]", "result": "−0.44 (0.15)"},
      {"measurement": "Change from baseline up to 120 hours in sub-total score per unit time, respiratory symptoms: Maximum value", "setting": "[1]", "result": 2.29},
      {"measurement": "Change from baseline up to 120 hours in sub-total score per unit time, respiratory symptoms: Mean value", "setting": "[1]", "result": "−2.33"},
      {"measurement": "Change from baseline up to 120 hours in sub-total score per unit time, respiratory symptoms: Median value", "setting": "[1]", "result": "−2.30"},
      {"measurement": "Change from baseline up to 120 hours in sub-total score per unit time, respiratory symptoms: Minimum value", "setting": "[1]", "result": "−6.34"},
      {"measurement": "Change from baseline up to 120 hours in sub-total score per unit time, systemic symptoms: Adjusted mean value by covariance analysis (standard error)", "setting": "[1]", "result": "−3.16 (0.14)"},
      {"measurement": "Change from baseline up to 120 hours in sub-total score per unit time, systemic symptoms: Difference of adjusted mean value from that of placebo group (standard error)", "setting": "[1]", "result": "0.30 (0.17)"},
      {"measurement": "Change from baseline up to 120 hours in sub-total score per unit time, systemic symptoms: Maximum value", "setting": "[1]", "result": 2.71},
      {"measurement": "Change from baseline up to 120 hours in sub-total score per unit time, systemic symptoms: Mean value", "setting": "[1]", "result": "−3.19"},
      {"measurement": "Change from baseline up to 120 hours in sub-total score per unit time, systemic symptoms: Median value", "setting": "[1]", "result": "−2.81"},
      {"measurement": "Change from baseline up to 120 hours in sub-total score per unit time, systemic symptoms: Minimum value", "setting": "[1]", "result": "−9.66"},
      {"measurement": "Change from baseline up to 120 hours in total score of 12 COVID-19 symptoms per unit time: Adjusted mean value by covariance analysis (standard error)", "setting": "375/125 mg group", "result": "−5.37 (0.24)"},
      {"measurement": "Change from baseline up to 120 hours in total score of 12 COVID-19 symptoms per unit time: Difference of adjusted mean value from that of placebo group (standard error)", "setting": "375/125 mg group", "result": "−0.24 (0.30)"},
      {"measurement": "Change from baseline up to 120 hours in total score of 12 COVID-19 symptoms per unit time: Maximum value", "setting": "375/125 mg group", "result": 2.43},
      {"measurement": "Change from baseline up to 120 hours in total score of 12 COVID-19 symptoms per unit time: Mean value", "setting": "375/125 mg group", "result": "−5.95"},
      {"measurement": "Change from baseline up to 120 hours in total score of 12 COVID-19 symptoms per unit time: Median value", "setting": "375/125 mg group", "result": "−5.40"},
      {"measurement": "Change from baseline up to 120 hours in total score of 12 COVID-19 symptoms per unit time: Minimum value", "setting": "375/125 mg group", "result": "−20.37"},
      {"measurement": "Change from baseline up to 120 hours in total score of 12 COVID-19 symptoms per unit time: Adjusted mean value by covariance analysis (standard error)", "setting": "750/250 mg group", "result": "−5.17 (0.23)"},
      {"measurement": "Change from baseline up to 120 hours in total score of 12 COVID-19 symptoms per unit time: Difference of adjusted mean value from that of placebo group (standard error)", "setting": "750/250 mg group", "result": "−0.04 (0.29)"},
      {"measurement": "Change from baseline up to 120 hours in total score of 12 COVID-19 symptoms per unit time: Maximum value", "setting": "750/250 mg group", "result": 2.47},
      {"measurement": "Change from baseline up to 120 hours in total score of 12 COVID-19 symptoms per unit time: Mean value", "setting": "750/250 mg group", "result": "−5.42"},
      {"measurement": "Change from baseline up to 120 hours in total score of 12 COVID-19 symptoms per unit time: Median value", "setting": "750/250 mg group", "result": "−4.92"},
      {"measurement": "Change from baseline up to 120 hours in total score of 12 COVID-19 symptoms per unit time: Minimum value", "setting": "750/250 mg group", "result": "−18.16"}
    ]}
  ]
}
